Measurements from patent US20250295639A1, “METHODS FOR TREATING HEART DISEASES” (Cytokinetics, Incorporated, priority 2024, published 2025).
“And” between values parts separate entries of the source, which are not always exact repeats. Equal entries are not always repeated.

Tested on: patients with symptomatic oHCM
Test: SEQUOIA-HCM: cardiopulmonary exercise testing (CPET), incl. by baseline beta blocker use
Assay type: in vivo, human
Source text: The primary objective of this trial was to evaluate the effect of aficamten on exercise capacity in patients with symptomatic oHCM. The indicated endpoint was a change in peak oxygen uptake (pVO2) by cardiopulmonary exercise testing (CPET) from baseline to Week 24. A further secondary objective was to evaluate the effect of aficamten on exercise capacity, as determined by change in total workload during CPET from baseline to Week 24. A further exploratory objective of this trial was to evaluate the effect of aficamten on other CPET parameters, as determined by changes from baseline to Week 24 in: (1) ventilator efficiency (VE/VCO2 slope); (2) circulatory power (VO2× systolic BP); and (3) ventilator anaerobic threshold (VAT). Cardiopulmonary Exercise Testing (CPET). All patients underwent CPET with gas-exchange analysis and the methodology will be standardized across all participating sites, as described in the CPET manual. Testing included continuous ECG monitoring by trained personnel and was performed in an area that was equipped for cardiopulmonary resuscitation. Treadmill was the preferred modality for exercise testing. […] Exercise protocols for both modalities were provided in the CPET manual. Patients had to use the same testing modality for all exercise tests during the trial. Whenever possible, CPET was administered by the same trial personnel using the same equipment and performed after the other trial procedures on that visit day (including echocardiogram, KCCQ, EQ-5D-5L, CGI, PGI-C, NYHA class, SAQ-7, vital signs, ECG, blood sampling, IP administration). Patients naïve to exercise protocols were familiarized with the technique during screening. All CPET testing was symptom-limited and patients were strongly encouraged to achieve maximal exertion and an RER ≥1.05. The reason(s) for termination of sub-maximal exercise tests were documented. A test was identified as being maximal effort if the RER is ≥1.05. The Week 24 CPET was performed at approximately the same time of day (eg, morning, mid-day, afternoon) as the baseline CPET at screening, at a consistent time after the last dose of beta blocker and IP. Whenever possible, patients performed exercise testing between three and ten hours after taking beta blocking agents. CPET End Points. We looked at whether aficamten would improve a novel measure of integrated exercise performance that combines complementary measures previously independently related to oHCM prognosis, and that incorporates both submaximal and maximal exercise capacity. A primary outcome was the change from baseline to week 24 in integrated exercise performance, defined as the 2-component Z-score of pVO2 and ventilatory efficiency (VE/VCO2 slope). Response rates for achieving clinically meaningful thresholds for change in pVO2 and correlations with clinical measures of treatment effect (health status, echocardiographic, cardiac biomarkers) were also assessed. The primary analysis was the change from baseline to Week 24 in integrated exercise performance, normalized to a composite of Z-scores for pVO2 and VE/VCO2 slope to capture physiologic responses to maximal and submaximal exercise. The Z-score was derived by reversing the directionality of VE/VCO2 slope such that increases in both Z-score components indicate benefit and equal weights were used for each Z-score component. Secondary end points included assessments for changes from baseline to week 24 in CPET-derived measures during 2 phases of exercise performance: (1) peak exercise (pVO2, peak workload, peak metabolic equivalents [METS], peak circulatory power [VO2× systolic blood pressure], exercise duration, peak respiratory exchange ratio [RER], heart rate reserve, peak heart rate, O2 pulse at peak exercise, proportionate pulse pressure); and (2) during submaximal exercise (pre-anaerobic threshold VE/VCO2 slope, VE/VCO2 slope throughout exercise, ventilatory power, ventilatory anaerobic threshold, and aerobic efficiency). Beta Blocker Co-administration. […]

[1] = Aficamten arm, change baseline to week 24
[2] = Baseline Beta Blocker Use: No, Week 24
[3] = Baseline Beta Blocker Use: Yes, Week 24
[4] = aficamten versus placebo, 24 weeks
[5] = patients treated with aficamten

## CCc1nc(-c2ccc3c(c2)CC[C@H]3NC(=O)c2cnn(C)c2)no1 [aficamten, (R)—N-(5-(5-ethyl-1,2,4-oxadiazol-3-yl)-2,3-dihydro-1H-inden-1-yl)-1-methyl-1H-pyrazole-4-carboxamide]
Aficamten arm, Week 24
  Aerobic efficiency: 8.6 mL/min/watt
  Exercise duration: 12.4 min
  Heart rate reserve: 66
  Integrated 2 component Z-score metric: 0.16
  Peak circulatory power: 3550 mmHg*mL/min/kg
  Peak heart rate: 135 beats/min
  Peak respiratory exchange ratio: 1.20
  Peak workload: 134 watt
  Proportionate pulse pressure (peak): 0.51
  Proportionate pulse pressure (rest): 0.37
  Ventilatory anaerobic threshold: 958 mL
  Ventilatory efficiency pre-anaerobic threshold (VE/VCO2 slope): 27.4
  Ventilatory efficiency throughout exercise (VE/VCO2 slope): 30.9
  Ventilatory power: 5.9 mmHg
  pVO2: 20.2 mL/kg/min
[1]
  Aerobic efficiency, Abs. diff.: 0.3 mL/min/watt
  Exercise duration, Abs. diff.: 1.2 min
  Heart rate reserve, Abs. diff.: 7
  Integrated 2 component Z-score metric, Abs. diff.: +0.17±0.51
  O2 pulse at peak exercise, Abs. diff.: 0.00 mL/beat
  Peak circulatory power, Abs. diff.: 537 mmHg*mL/min/kg
  Peak heart rate, Abs. diff.: 8 beats/min
  Peak respiratory exchange ratio, Abs. diff.: 0.01
  Peak workload, Abs. diff.: 14 watt
  Proportionate pulse pressure (peak), Abs. diff.: 0.02
  Proportionate pulse pressure (rest), Abs. diff.: −0.02
  Ventilatory anaerobic threshold, Abs. diff.: 60 mL
  Ventilatory efficiency pre-anaerobic threshold (VE/VCO2 slope), Abs. diff.: −1.9
  Ventilatory efficiency throughout exercise (VE/VCO2 slope), Abs. diff.: −2.2
  Ventilatory power, Abs. diff.: 0.8 mmHg
  pVO2, Abs. diff.: 1.8 mL/kg/min
Aficamten arm, change baseline to week 24, listed as Aficamten
  Integrated 2 component Z-score metric, Abs. diff.: 0.17
Aficamten, 24 weeks
  patients with Any Deterioration (small/moderate/large) in pVO2: (26.1%)
  patients with Any Deterioration (small/moderate/large) in pVO2, number: 37
  patients with Any Improvement (small/moderate/large) in pVO2: (73.9%)
  patients with Any Improvement (small/moderate/large) in pVO2, number: 105
  patients with Large Improvement in pVO2 (≥3.0 mL/kg/min): 32%
  patients with Large Improvement in pVO2 (≥3.0 mL/kg/min), number: 46
  patients with Moderate/Large Improvement in pVO2 (≥1.5 mL/kg/min): (52.8%)
  patients with Moderate/Large Improvement in pVO2 (≥1.5 mL/kg/min), number: 75
Aficamten, 24 weeks, listed as Aficamten
  patients with Large Improvement in pVO2 (≥3.0 mL/kg/min): (32.4%)
Baseline Beta Blocker Use: No
  Change in Exercise Duration on CPET from Baseline to Week 24, LS Mean (SE): 1.2 (0.26) minutes
  Change in Exercise Duration on CPET from Baseline to Week 24, LS Mean Diff vs. Placebo (SE): 1.1 (0.38) minutes
  Change in Exercise Duration on CPET from Baseline to Week 24, Mean (SD): 1.3 (2.34) minutes
  Change in Exercise Duration on CPET from Baseline to Week 24, Median: 1.1 min
  Change in peak METs from Baseline to Week 24, LS Mean (SE): 0.62 (0.113) METs
  Change in peak METs from Baseline to Week 24, LS Mean Diff vs. Placebo (SE): 0.55 (0.162) METs
  Change in peak METs from Baseline to Week 24, Mean (SD): 0.65 (1.029) METs
  Change in peak METs from Baseline to Week 24, Median: 0.47 METs
  Exercise Duration on CPET, Baseline, Mean (SD): 11.0 (3.52) minutes
  Exercise Duration on CPET, Baseline, Median: 10.3 min
  peak METs (pVO2/3.5 (mL/kg/min)) on CPET, Baseline, Mean (SD): 5.27 (1.314) METs
  peak METs (pVO2/3.5 (mL/kg/min)) on CPET, Baseline, Median: 5.11 METs
[2]
  Exercise Duration on CPET, Week 24, Mean (SD): 12.2 (4.39) minutes
  Exercise Duration on CPET, Week 24, Median: 11.3 min
  peak METs (pVO2/3.5 (mL/kg/min)) on CPET, Week 24, Mean (SD): 5.89 (1.481) METs
  peak METs (pVO2/3.5 (mL/kg/min)) on CPET, Week 24, Median: 5.66 METs
Baseline Beta Blocker Use: Yes
  Change in Exercise Duration on CPET from Baseline to Week 24, LS Mean (SE): 1.0 (0.22) minutes
  Change in Exercise Duration on CPET from Baseline to Week 24, LS Mean Diff vs. Placebo (SE): 0.9 (0.30) minutes
  Change in Exercise Duration on CPET from Baseline to Week 24, Mean (SD): 1.1 (1.98) minutes
  Change in Exercise Duration on CPET from Baseline to Week 24, Median: 0.5 min
  Change in peak METs from Baseline to Week 24, LS Mean (SE): 0.40 (0.093) METs
  Change in peak METs from Baseline to Week 24, LS Mean Diff vs. Placebo (SE): 0.46 (0.130) METs
  Change in peak METs from Baseline to Week 24, Mean (SD): 0.41 (0.781) METs
  Change in peak METs from Baseline to Week 24, Median: 0.31 METs
  Exercise Duration on CPET, Baseline, Mean (SD): 11.4 (2.55) minutes
  Exercise Duration on CPET, Baseline, Median: 11.1 min
  peak METs (pVO2/3.5 (mL/kg/min)) on CPET, Baseline, Mean (SD): 5.24 (1.251) METs
  peak METs (pVO2/3.5 (mL/kg/min)) on CPET, Baseline, Median: 5.28 METs
[3]
  Exercise Duration on CPET, Week 24, Mean (SD): 12.5 (3.61) minutes
  Exercise Duration on CPET, Week 24, Median: 12.4 min
  peak METs (pVO2/3.5 (mL/kg/min)) on CPET, Week 24, Mean (SD): 5.70 (1.497) METs
  peak METs (pVO2/3.5 (mL/kg/min)) on CPET, Week 24, Median: 5.64 METs
Aficamten group, 24 weeks
  patients with large pVO2 deteriorations/reductions (≥3.0 mL/kg/min): 2%
[4]
  Any Deterioration in pVO2, NNT: −3.8
  Any Deterioration in pVO2, OR: 0.32
  Any Deterioration in pVO2, Risk Difference: −26%
  Any Improvement in pVO2, NNT: 3.8 and < 4
  Any Improvement in pVO2, OR: 3.09
  Any Improvement in pVO2, Risk Difference: +26%
  Large Improvement in pVO2, NNT: 6.3
  Large Improvement in pVO2, OR: 2.44
  Large Improvement in pVO2, Risk Difference: +15.%
  Moderate/Large Improvement in pVO2, NNT: 4.7
  Moderate/Large Improvement in pVO2, OR: 2.44
  Moderate/Large Improvement in pVO2, Risk Difference: +21%
Aficamten versus placebo, 24 weeks, listed as Aficamten
  Any Improvement in pVO2, NNT: 3.8
Aficamten vs placebo, week 24
  Aerobic efficiency, Adjusted difference (LS mean treatment difference): 0.2 mL/min/watt
  Exercise duration, Adjusted difference (LS mean treatment difference): 1.0 min
  Heart rate reserve, Adjusted difference (LS mean treatment difference): 6
  Integrated 2 component Z-score metric, Adjusted difference (LS mean treatment difference): +0.35
  O2 pulse at peak exercise, Adjusted difference (LS mean treatment difference): 0.003 mL/beat
  Peak circulatory power, Adjusted difference (LS mean treatment difference): 586 mmHg*mL/min/kg
  Peak heart rate, Adjusted difference (LS mean treatment difference): 9 beats/min
  Peak respiratory exchange ratio, Adjusted difference (LS mean treatment difference): 0.00
  Peak workload, Adjusted difference (LS mean treatment difference): 12 watt
  Proportionate pulse pressure (peak), Adjusted difference (LS mean treatment difference): 0.01
  Proportionate pulse pressure (rest), Adjusted difference (LS mean treatment difference): −0.01
  Ventilatory anaerobic threshold, Adjusted difference (LS mean treatment difference): 59 mL
  Ventilatory efficiency pre-anaerobic threshold (VE/VCO2 slope), Adjusted difference (LS mean treatment difference): −1.5
  Ventilatory efficiency throughout exercise (VE/VCO2 slope), Adjusted difference (LS mean treatment difference): −2.3
  Ventilatory power, Adjusted difference (LS mean treatment difference): 0.9 mmHg
  pVO2, Adjusted difference (LS mean treatment difference): 1.7 mL/kg/min
Aficamten vs placebo, week 24, listed as Aficamten
  Integrated 2 component Z-score metric, Adjusted difference (LS mean treatment difference): 0.35
Baseline to Week 24
  improvement in Exercise Duration on CPET: influence of beta blockers: not significantly diminished by the use of beta blockers
  improvement in peak metabolic equivalents (peak METs) on CPET: influence of beta blockers: not significantly diminished by the use of beta blockers
Categorical threshold analyses
  times less likely to experience worsening of pVO2 than those on placebo: more than 5 times
[5]
  patients who experienced an improvement in pVO2: 72.2%
  patients with large improvement (≥3.0 mL/kg/min) in pVO2: 27.8%
  patients with moderate improvement (≥1.5 to <3.0 mL/kg/min) in pVO2: 21.8%
  patients with small improvement (0 to <1.5) in pVO2: 22.6%
Patients who were also on beta blockers
  LSM difference in pVO2 (95% CI): 1.6 (0.7 to 2.5) mL/kg/min
Patients who were not on beta blockers
  LSM difference in pVO2 (95% CI): 1.9 (0.8 to 3.1) mL/kg/min
